Assay results published in patent US8563248B2, “Compositions and methods for detection of colorectal cancer” (priority 2005, dated 2013).

Experiments:
IBABP-L mRNA = experiment: Regulation of IBABP-L expression in Caco-2 cells, quantitative RT-PCR; type: cell-based, human; settings: 24 h, normalized to ARPP0
Protocol: (§1) The expression of IBABP-L and IBABP was measured by quantitative RT-PCR. The mRNA copy number of each variant is normalized to the expression the housekeeping gene ARPP0. Values in the figure represent the average of three experiments with each replicate performed in duplicate.
(§2) To determine the relative expression levels of IBABP-L and IBABP, a two-step quantitative RT-PCR procedure was used. In the first step, complementary DNA (cDNA) was synthesized from total RNA. […] In the second step, quantitative PCT (QPCR) was carried out on a Mx 3000P Real-Time PCR System (Stratagene, La Jolla, Calif.) using a solution containing diluted cDNA (1:20; 2.0 μl), 1×SYBR Green PCR Master Mix (Applied Biosystems, Foster City, Calif.), and primers for IBABP-L, IBABP, or ARPP0 (0.25 μM). […]
(§3) Caco-2 cells were seeded in six-well plates (Falcon) at 2×10^5 cells/well. […] Cells were harvested, cellular RNA was isolated using the RNeasy Mini Kit (Qiagen) according to manufacturer instruction, and expression of IBABP variants was determined by QPCR as described above. […]

IBABP mRNA = experiment: Regulation of IBABP expression in Caco-2 cells, quantitative RT-PCR; type: cell-based, human; settings: 100 nM, 24 h, normalized to ARPP0
Protocol: as §1, §2, §3

BAR = biological target: T1, BAR (Homo sapiens, UniProt Q96RI1); settings: gene-selective BAR modulator; cited from earlier work
T1 sequence (Q96RI1 1-486): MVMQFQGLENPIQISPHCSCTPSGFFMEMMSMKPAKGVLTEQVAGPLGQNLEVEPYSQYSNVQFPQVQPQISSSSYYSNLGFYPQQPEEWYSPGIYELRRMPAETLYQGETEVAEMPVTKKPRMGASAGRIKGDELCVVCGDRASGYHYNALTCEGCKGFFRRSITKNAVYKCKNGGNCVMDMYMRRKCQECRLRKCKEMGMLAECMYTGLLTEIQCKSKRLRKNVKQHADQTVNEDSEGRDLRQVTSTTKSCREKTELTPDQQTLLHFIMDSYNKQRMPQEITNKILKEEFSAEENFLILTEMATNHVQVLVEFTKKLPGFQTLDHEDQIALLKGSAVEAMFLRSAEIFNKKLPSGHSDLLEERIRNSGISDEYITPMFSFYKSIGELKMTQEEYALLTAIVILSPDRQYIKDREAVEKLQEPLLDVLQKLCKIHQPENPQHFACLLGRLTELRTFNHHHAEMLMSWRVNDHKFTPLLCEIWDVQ

Structure (SMILES): CC1=C(/C=C/C(C)=C\C=C\C(C)=C\C(=O)O)C(C)(C)CCC1 [9cRA, 9-cis-retinoic acid]
- effect on expression of IBABP-L (IBABP-L mRNA; 100 nM): without effect
- effect on expression of IBABP (IBABP mRNA): up-regulated

Structure (SMILES): C[C@H](CCC(=O)O)[C@H]1CC[C@H]2[C@@H]3[C@H](O)C[C@@H]4C[C@H](O)CC[C@]4(C)[C@H]3CC[C@]12C [CDCA, chenodeoxycholic acid]
- effect on expression of IBABP-L (IBABP-L mRNA; 100 μM): without effect

Structure (SMILES): CCCCCCOc1c(\C(C)=C/C=C/C(C)=C/C(=O)O)cc(C(C)C)cc1C(C)C [AGN34]
- action on CYP7A1 (BAR): agonist
- action on IBABP (BAR): antagonist
- action on SHP (BAR): neutral
